Measured values reported in patent publication US20070117743A1, “New antitumoral compounds” (priority 2003, published 2007).
Like-named read-outs stand apart in the source and are kept apart here.

Key:
Format in all cases: cell-based, human
IGROV-1 = assay: SRB colorimetric assay of cell growth and viability, IGROV-1; conditions: 48 hours exposure
HeLa-APL = assay: SRB colorimetric assay of cell growth and viability, HeLa-APL; conditions: 48 hours exposure; for CC50: read-out: LC50 HELA-APL
LNCaP = assay: SRB colorimetric assay of cell growth and viability, LNCaP; conditions: 48 hours exposure; for GI50: read-out: GI50 LN-caP; for CC50: read-out: LC50 LN-caP
Text: The finality of this assay is to interrupt the growth of a “in vitro” tumor cell culture by means a continued exhibition of the cells to the sample to be testing.
This form of the assay employs 96 well cell culture microplates of 9 mm diameter (Faircloth, 1988; Mosmann, 1983). Most of the cell lines are obtained from American Type Culture Collection (ATCC) derived from different human cancer types.
Cells are maintained in RPMI 1640 10% FBS, supplemented with 0.1 g/l penicillin and 0.1 g/l streptomycin sulfate and then incubated at 37° C., 5% CO2 and 98% humidity. For the experiments, cells were harvested from subconfluent cultures using trypsin and resuspended in fresh medium before plating.
Cells are seeded in 96 well microtiter plates, at 5×10^3 cells per well in aliquots of 195 μL medium, and they are allowed to attach to the plate surface by growing in drug free medium for 18 hours. Afterward, samples are added in aliquots of 5 μL in a ranging from 10 to 10^−8 μg/mL, dissolved in DMSO:EtOH:PBS (0.5:0.5:99). After 48 hours exposure, the antitumor effect are measured by the SRB methodology: cells are fixed by adding 50 μL of cold 50% (wt/vol) trichloroacetic acid (TCA) and incubating for 60 minutes at 4° C. Plates are washed with deionized water and dried. One hundred μL of SRB solution (0.4% wt/vol in 1% acetic acid) is added to each microtiter well and incubated for 10 minutes at room temperature. Unbound SRB is removed by washing with 1% acetic acid. Plates are air dried and bound stain is solubilized with Tris buffer. Optical densities are read on a automated spectrophotometric plate reader at a single wavelength of 490 nm.
The values for mean+/− SD of data from triplicate wells are calculated. Some parameters for cellular responses can be calculated: GI=growth inhibition, TGI=total growth inhibition (cytostatic effect) and LC=cell killing (cytotoxic effect).

DU-145 = assay: SRB colorimetric assay of cell growth and viability, DU-145; conditions: 48 hours exposure
A-549 = assay: SRB colorimetric assay of cell growth and viability, A-549; conditions: 48 hours exposure; for GI50: read-out: GI50 A-549; for CC50: read-out: LC50 A-549
HT-29 = assay: SRB colorimetric assay of cell growth and viability, HT-29; conditions: 48 hours exposure; for GI50: read-out: GI50 HT-29; for CC50: read-out: LC50 HT-29
PANC-1 = assay: SRB colorimetric assay of cell growth and viability, PANC-1; conditions: 48 hours exposure; for CC50: read-out: LC50 PANC-1
LoVo = assay: SRB colorimetric assay of cell growth and viability, LoVo; conditions: 48 hours exposure; for CC50: read-out: LC50 LOVO
LoVo-Dox = assay: SRB colorimetric assay of cell growth and viability, LoVo-Dox; conditions: 48 hours exposure; for CC50: read-out: LC50 LOVO-DOX
How it was run: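 First, 5×10^3 cells per well attach for 18 hours in RPMI 1640 with 10% FBS at 37° C and 5% CO2. Next, samples spanning 10 to 10^−8 μg/mL are added for 48 hours. Finally, cells are fixed with TCA, stained with SRB for 10 minutes and read at 490 nm.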

K-562 = assay: SRB colorimetric assay of cell growth and viability, K-562; conditions: 48 hours exposure; for CC50: read-out: LC50 K-562
IGROV-ET = assay: SRB colorimetric assay of cell growth and viability, IGROV-ET; conditions: 48 hours exposure; for CC50: read-out: LC50 IGROV-ET
HeLa = assay: SRB colorimetric assay of cell growth and viability, HeLa; conditions: 48 hours exposure; for CC50: read-out: LC50 HELA
SK-MEL-28 = assay: SRB colorimetric assay of cell growth and viability, SK-MEL-28; conditions: 48 hours exposure; for CC50: read-out: LC50 MEL-28

## C/C=C1\NC(=O)[C@H](Cc2ccccc2)NC(=O)[C@@H](C(C)C)NC(=O)[C@@H]([C@@H](C)CC)NC(=O)[C@H](NC(=O)[C@H](NC(=O)[C@H](CCCN)NC(=O)[C@@H]2CCCN2C(=O)[C@H](NC(=O)[C@@H](NC(=O)[C@@H](NC(=O)[C@H](NC(=O)CC[C@@H](C)CC)C(C)C)[C@@H](C)O)C(C)C)C(C)C)[C@@H](C)CC)[C@@H](C)OC(=O)[C@H](C(C)C)NC1=O [Compound 59, [Pro^9, (4S)-MeHex^14]-KF]
IGROV-1; SRB
  GI50: ≥ 6.76 µM
  LC50 (concentration causing 50% net cell killing): ≥ 6.76 µM
  TGI IGROV: 6.76E−06 Molar
HeLa-APL; HELA-APL
  GI50: ≥ 6.76 µM
  TGI HELA-APL: 6.76E−06 Molar
  CC50: ≥ 6.76 µM
LNCaP; SRB
  TGI LN-caP: 6.76E−06 Molar
  GI50: 4.52 µM
  CC50: ≥ 6.76 µM
DU-145; SRB
  GI50: ≥ 6.76 µM
  LC50 (concentration causing 50% net cell kill): ≥ 6.76 µM
  TGI DU-145: 6.76E−06 Molar
A-549; A-549
  TGI A-549: 6.76E−06 Molar
  GI50: ≥ 6.76 µM
  CC50: ≥ 6.76 µM
HT-29; HT-29
  TGI HT-29: 6.76E−06 Molar
  GI50: ≥ 6.76 µM
  CC50: ≥ 6.76 µM
PANC-1; PANC-1
  GI50: ≥ 6.76 µM
  TGI PANC-1: 6.76E−06 Molar
  CC50: ≥ 6.76 µM
LoVo; LOVO
  GI50: 5.28 µM
  TGI LOVO: 6.76E−06 Molar
  CC50: ≥ 6.76 µM
LoVo-Dox; LOVO-DOX
  GI50: ≥ 6.76 µM
  TGI LOVO-DOX: 6.76E−06 Molar
  CC50: ≥ 6.76 µM
K-562; K-562
  GI50: ≥ 6.76 µM
  TGI K-562: 6.76E−06 Molar
  CC50: ≥ 6.76 µM
IGROV-ET; SRB
  GI50: ≥ 6.76 µM
  TGI IGROV-ET: 6.76E−06 Molar
  CC50: ≥ 6.76 µM
HeLa; HELA
  GI50: ≥ 6.76 µM
  TGI HELA: 6.76E−06 Molar
  CC50: ≥ 6.76 µM
SK-MEL-28; SRB
  GI50: ≥ 6.76 µM
  TGI MEL-28: 6.76E−06 Molar
  CC50: ≥ 6.76 µM

## C/C=C1\NC(=O)[C@H](Cc2ccccc2)NC(=O)[C@@H](C(C)C)NC(=O)[C@@H]([C@@H](C)CC)NC(=O)[C@H](NC(=O)[C@H](NC(=O)[C@H](CCCN)NC(=O)[C@H]2CCCN2C(=O)[C@H](NC(=O)[C@@H](NC(=O)[C@@H](NC(=O)[C@H](NC(=O)CCCC(C)C)[C@H](C)O)[C@@H](C)O)C(C)C)C(C)C)[C@@H](C)CC)[C@@H](C)OC(=O)[C@H](C(C)C)NC1=O [Compound 41, [D-Thr^13]-KF]
IGROV-1
  GI50: 0.777 µM
  LC50 (concentration causing 50% net cell killing): 3.13 µM
  TGI IGROV: 1.56E−06 Molar
HeLa-APL
  GI50: 1.24 µM
  TGI HELA-APL: 2.15E−06 Molar
  CC50: 3.74 µM
LNCaP
  TGI LN-caP: 6.76E−06 Molar
  GI50: 2.28 µM
  CC50: ≥ 6.76 µM
DU-145
  GI50: 1 µM
  LC50 (concentration causing 50% net cell kill): 3.73 µM
  TGI DU-145: 1.93E−06 Molar
A-549
  TGI A-549: 2.72E−06 Molar
  GI50: 1.63 µM
  CC50: 4.53 µM
HT-29
  TGI HT-29: 1.57E−06 Molar
  GI50: 0.73 µM
  CC50: 3.41 µM
PANC-1
  GI50: 2.69 µM
  TGI PANC-1: 6.76E−06 Molar
  CC50: ≥ 6.76 µM
LoVo
  GI50: 0.155 µM
  TGI LOVO: 7.23E−07 Molar
  CC50: 2.9 µM
LoVo-Dox
  GI50: 0.126 µM
  TGI LOVO-DOX: 2.53E−07 Molar
  CC50: 0.509 µM
K-562
  GI50: 5.85 µM
  TGI K-562: 6.76E−06 Molar
  CC50: ≥ 6.76 µM
IGROV-ET
  GI50: 0.515 µM
  TGI IGROV-ET: 1.35E−06 Molar
  CC50: 3.16 µM
HeLa
  GI50: 1.02 µM
  TGI HELA: 2.00E−06 Molar
  CC50: 3.94 µM
SK-MEL-28
  GI50: 1.23 µM
  TGI MEL-28: 2.20E−06 Molar
  CC50: 3.96 µM

## C/C=C1\NC(=O)[C@H](Cc2ccccc2)NC(=O)[C@@H](C(C)C)NC(=O)[C@@H]([C@@H](C)CC)NC(=O)[C@H](NC(=O)[C@H](NC(=O)[C@H](CCCN)NC(=O)[C@H]2CCCCN2C(=O)[C@H](NC(=O)[C@@H](NC(=O)[C@@H](NC(=O)[C@H](NC(=O)CC[C@@H](C)CC)C(C)C)[C@@H](C)O)C(C)C)C(C)C)[C@@H](C)CC)[C@@H](C)OC(=O)[C@H](C(C)C)NC1=O [Compound 60, [D-Pip^9, (4S)-MeHex^14]-KF]
IGROV-1; SRB
  GI50: 1.24 µM
  LC50 (concentration causing 50% net cell killing): 6.28 µM
  TGI IGROV: 2.79E−06 Molar
HeLa-APL; HELA-APL
  GI50: 2.05 µM
  TGI HELA-APL: 4.42E−06 Molar
  CC50: 6.7 µM
LNCaP; SRB
  TGI LN-caP: 2.59E−06 Molar
  GI50: 1.23 µM
  CC50: 5.43 µM
DU-145; SRB
  GI50: 1.64 µM
  LC50 (concentration causing 50% net cell kill): 6.16 µM
  TGI DU-145: 3.17E−06 Molar
A-549; A-549
  TGI A-549: 3.66E−06 Molar
  GI50: 1.61 µM
  CC50: 6.7 µM
HT-29; HT-29
  TGI HT-29: 2.16E−06 Molar
  GI50: 1.04 µM
  CC50: 4.47 µM
PANC-1; PANC-1
  GI50: 6.7 µM
  TGI PANC-1: 6.70E−06 Molar
  CC50: 6.7 µM
LoVo; LOVO
  GI50: 1.03 µM
  TGI LOVO: 2.44E−06 Molar
  CC50: 5.77 µM
LoVo-Dox; LOVO-DOX
  GI50: 0.624 µM
  TGI LOVO-DOX: 1.98E−06 Molar
  CC50: 6.14 µM
K-562; K-562
  GI50: 5.3 µM
  TGI K-562: 6.70E−06 Molar
  CC50: 6.7 µM
IGROV-ET; SRB
  GI50: 1.21 µM
  TGI IGROV-ET: 2.68E−06 Molar
  CC50: 5.95 µM
HeLa; HELA
  GI50: 3.15 µM
  TGI HELA: 6.70E−06 Molar
  CC50: 6.7 µM
SK-MEL-28; SRB
  GI50: 1.66 µM
  TGI MEL-28: 3.07E−06 Molar
  CC50: 5.68 µM
